Experimental data: patent publication US20100168093A1, “SUBSTITUTED 3-AMINO-4 -HYDROXY PYRROLIDINES COMPOUNDS, THEIR PREPARATION AND USE AS MEDICAMENTS” (priority 2006, published 2010)

Columns and labels:
[1] = molecular target: T1, Sigma-1 receptor (Cavia porcellus, UniProt Q60492); test: Sigma-1 receptor binding assay, [3H](+)-pentazocine displacement in brain membranes; conditions: 2.5 h, compound at 10^−7 M; [3H](+)-pentazocine 0.5 nM; guinea pig brain membranes; non-specific binding defined by 1 μM haloperidol; read-out: Percent Replacement Sigma-1 receptor [10^−7 M]
T1 construct: guinea pig brains were homogenized; from tissue; host or cells: guinea pig brain membranes
Description: Some representative compounds of the invention were tested for their activity as sigma (sigma-1) inhibitors. The following protocol was followed:
Brain membrane preparation and binding assays for the σ1-receptor were performed as described (DeHaven-Hudkins et al., 1992, Eur. J. Pharmacol. 227, 371-378.) with some modifications. In brief, guinea pig brains were homogenized in 10 vols. (w/v) of Tris-HCl 50 mM 0.32 M sucrose, pH 7.4, with a Kinematica Polytron PT 3000 at 15000 r.p.m. for 30 s. The homogenate was centrifuged at 1000g for 10 min at 4° C. and the supematants collected and centrifuged again at 48000 g for 15 min at 4° C. The pellet was resuspended in 10 volumes of Tris-HCl buffer (50 mM, pH 7.4), incubated at 37° C. for 30 min, and centrifuged at 48000 g for 20 min at 4° C. Following this, the pellet was resuspended in fresh Tris-HCl buffer (50 mM, pH 7.4) and stored on ice until use.
Each assay tube contained 10 μL of [^3H](+)-pentazocine (final concentration of 0.5 nM), 900 μL of the tissue suspension to a final assay volume of 1 mL and a final tissue concentration of approximately 30 mg tissue net weight/mL. Non-specific binding was defined by addition of a final concentration of 1 μM haloperidol. All tubes were incubated at 37° C. for 150 min before termination of the reaction by rapid filtration over Schleicher & Schuell GF 3362 glass fibre filters [previously soaked in a solution of 0.5% polyethylenimine for at least 1 h]. Filters were then washed with four times with 4 mL of cold Tris-HCl buffer (50 mM, pH 7.4). Following addition of scintillation cocktail, the samples were allowed to equilibrate overnight. The amount of bound radioactivity was determined by liquid scintillation spectrometry using a Wallac Winspectral 1414 liquid scintillation counter. Protein concentrations were determined by the method of Lowry et al. (1951; J. Biol. Chem, 193, 265.).

T1 sequence (Q60492 whole entry): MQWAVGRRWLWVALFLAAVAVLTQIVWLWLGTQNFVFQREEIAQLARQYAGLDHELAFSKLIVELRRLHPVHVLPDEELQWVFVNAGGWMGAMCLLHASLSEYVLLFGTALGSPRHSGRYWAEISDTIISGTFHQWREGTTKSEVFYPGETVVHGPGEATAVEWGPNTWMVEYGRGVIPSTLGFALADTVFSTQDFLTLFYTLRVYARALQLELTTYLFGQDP

Row | SMILES | melting point | inhibition at 0.1 µM [1]
1 | O[C@@H]1CN(Cc2ccccc2)C[C@H]1N1CCN(Cc2ccccc2)CC1 [Example 17, (3,4-trans)-1-benzyl-4-(4-benzylpiperazin-1-yl)pyrrolidine-3-ol] | 102 to 103 °C | 82.1%
2 | O[C@@H]1CN(Cc2ccccc2)C[C@H]1N1CCN(c2ccccc2)CC1 [Example 18, (3,4-trans)-1-benzyl-4-(4-phenylpiperazin-1-yl)pyrrolidine-3-ol] | 120 to 123 °C | 90.9%
